Assay results reported in the NIST ThermoML archive (doi:10.1021/je030136n).
Numbers after ± are expanded uncertainties.

Test: xn = mol fraction of the nth substance listed
Conditions: Liquid, Pulse-echo method

## CCCCCCC [heptane] + CCCO
298.17 K, 30400 kPa, x2 = 0.3008
  speed of sound: 1319.3 ± 1.1 m/s
298.17 K, 45590 kPa, x2 = 0.3008
  speed of sound: 1394.1 ± 1.2 m/s
298.17 K, 60790 kPa, x2 = 0.3008
  speed of sound: 1461.5 ± 1.2 m/s
298.17 K, 60790 kPa, x2 = 0.7986
  speed of sound: 1471.8 ± 1.1 m/s
298.17 K, 75990 kPa, x2 = 0.1008
  speed of sound: 1526.8 ± 1.2 m/s
298.17 K, 75990 kPa, x2 = 0.3008
  speed of sound: 1523.2 ± 1.2 m/s
298.17 K, 75990 kPa, x2 = 0.7986
  speed of sound: 1529.5 ± 1.2 m/s
298.17 K, 91190 kPa, x2 = 0.1008
  speed of sound: 1584.5 ± 1.3 m/s
298.17 K, 91190 kPa, x2 = 0.7016
  speed of sound: 1580.7 ± 1.2 m/s
298.17 K, 111450 kPa, x2 = 0.7016
  speed of sound: 1647.6 ± 1.2 m/s
298.18 K, 100 kPa, x2 = 0.3008
  speed of sound: 1128.6 ± 1.1 m/s
298.18 K, 100 kPa, x2 = 0.6027
  speed of sound: 1144.3 ± 1 m/s
298.18 K, 45590 kPa, x2 = 0
  speed of sound: 1400.1 ± 1.2 m/s
298.18 K, 60790 kPa, x2 = 0.1008
  speed of sound: 1464.2 ± 1.2 m/s
298.18 K, 60790 kPa, x2 = 0.7016
  speed of sound: 1467.2 ± 1.1 m/s
298.18 K, 75990 kPa, x2 = 0.7016
  speed of sound: 1526 ± 1.2 m/s
298.18 K, 101320 kPa, x2 = 0.7016
  speed of sound: 1614.9 ± 1.2 m/s
298.18 K, 111450 kPa, x2 = 0.1008
  speed of sound: 1655.1 ± 1.3 m/s
298.18 K, 121580 kPa, x2 = 0.7016
  speed of sound: 1678.9 ± 1.3 m/s
298.19 K, 30400 kPa, x2 = 0.6027
  speed of sound: 1326.4 ± 1.1 m/s
298.19 K, 45590 kPa, x2 = 0.6027
  speed of sound: 1398.6 ± 1.1 m/s
298.19 K, 45590 kPa, x2 = 0.7016
  speed of sound: 1403 ± 1.1 m/s
298.19 K, 60790 kPa, x2 = 0
  speed of sound: 1468.7 ± 1.2 m/s
298.19 K, 91190 kPa, x2 = 0.3008
  speed of sound: 1580.1 ± 1.2 m/s
298.19 K, 91190 kPa, x2 = 0.6027
  speed of sound: 1579 ± 1.2 m/s
298.2 K, 100 kPa, x2 = 0.7016
  speed of sound: 1154 ± 1 m/s
298.2 K, 30400 kPa, x2 = 0.7016
  speed of sound: 1332.1 ± 1.1 m/s
298.2 K, 121580 kPa, x2 = 0.7986
  speed of sound: 1679.9 ± 1.3 m/s
298.22 K, 75990 kPa, x2 = 0.6027
  speed of sound: 1523.5 ± 1.2 m/s
298.23 K, 60790 kPa, x2 = 0.6027
  speed of sound: 1463.6 ± 1.2 m/s
298.25 K, 101320 kPa, x2 = 0.7986
  speed of sound: 1616.7 ± 1.2 m/s
298.26 K, 91190 kPa, x2 = 0.7986
  speed of sound: 1583 ± 1.2 m/s
303.06 K, 100 kPa, x2 = 0
  speed of sound: 1108.9 ± 1.1 m/s
303.07 K, 45590 kPa, x2 = 0
  speed of sound: 1384.4 ± 1.2 m/s
303.08 K, 60790 kPa, x2 = 0.6027
  speed of sound: 1449.5 ± 1.2 m/s
303.08 K, 101320 kPa, x2 = 0.6027
  speed of sound: 1601.2 ± 1.2 m/s
303.09 K, 101320 kPa, x2 = 0.7986
  speed of sound: 1604.9 ± 1.2 m/s
303.1 K, 75990 kPa, x2 = 0.7986
  speed of sound: 1516.7 ± 1.2 m/s
303.1 K, 91190 kPa, x2 = 0.7986
  speed of sound: 1570.9 ± 1.2 m/s
303.1 K, 101320 kPa, x2 = 0
  speed of sound: 1612.6 ± 1.3 m/s
303.1 K, 111450 kPa, x2 = 0.6027
  speed of sound: 1634.7 ± 1.2 m/s
303.1 K, 121580 kPa, x2 = 0
  speed of sound: 1681.2 ± 1.3 m/s
303.11 K, 111450 kPa, x2 = 0.4992
  speed of sound: 1635.3 ± 1.3 m/s
303.11 K, 121580 kPa, x2 = 0.4992
  speed of sound: 1667.7 ± 1.3 m/s
303.11 K, 121580 kPa, x2 = 0.7986
  speed of sound: 1668.6 ± 1.3 m/s
303.12 K, 100 kPa, x2 = 0.7986
  speed of sound: 1147.6 ± 1 m/s
303.12 K, 30400 kPa, x2 = 0.7986
  speed of sound: 1324.1 ± 1.1 m/s
303.12 K, 45590 kPa, x2 = 0.7016
  speed of sound: 1388.2 ± 1.1 m/s
303.12 K, 45590 kPa, x2 = 0.7986
  speed of sound: 1394.5 ± 1.1 m/s
303.12 K, 101320 kPa, x2 = 0.4992
  speed of sound: 1601.3 ± 1.2 m/s
303.12 K, 111450 kPa, x2 = 0.7986
  speed of sound: 1637.5 ± 1.2 m/s
303.12 K, 121580 kPa, x2 = 0.7016
  speed of sound: 1667.3 ± 1.3 m/s
303.13 K, 30400 kPa, x2 = 0
  speed of sound: 1307 ± 1.2 m/s
303.13 K, 30400 kPa, x2 = 0.7016
  speed of sound: 1316.2 ± 1.1 m/s
303.13 K, 60790 kPa, x2 = 0.7986
  speed of sound: 1458.1 ± 1.1 m/s
303.13 K, 75990 kPa, x2 = 0.7016
  speed of sound: 1512.7 ± 1.2 m/s
303.13 K, 91190 kPa, x2 = 0.4992
  speed of sound: 1565.8 ± 1.2 m/s
303.13 K, 91190 kPa, x2 = 0.7016
  speed of sound: 1567.8 ± 1.2 m/s
303.13 K, 101320 kPa, x2 = 0.7016
  speed of sound: 1602.5 ± 1.2 m/s
303.13 K, 111450 kPa, x2 = 0.7016
  speed of sound: 1635.6 ± 1.2 m/s
303.14 K, 100 kPa, x2 = 0.7016
  speed of sound: 1134.5 ± 1 m/s
303.14 K, 30400 kPa, x2 = 0.4992
  speed of sound: 1306.5 ± 1.1 m/s
303.14 K, 30400 kPa, x2 = 0.6027
  speed of sound: 1310 ± 1.1 m/s
303.14 K, 60790 kPa, x2 = 0.7016
  speed of sound: 1453.1 ± 1.1 m/s
303.14 K, 75990 kPa, x2 = 0.4992
  speed of sound: 1509.2 ± 1.2 m/s
303.14 K, 91190 kPa, x2 = 0.6027
  speed of sound: 1565.9 ± 1.2 m/s
303.15 K, 100 kPa, x2 = 0.6027
  speed of sound: 1124 ± 1 m/s
303.15 K, 45590 kPa, x2 = 0.6027
  speed of sound: 1383.2 ± 1.1 m/s
303.15 K, 60790 kPa, x2 = 0.4992
  speed of sound: 1448 ± 1.2 m/s
303.15 K, 75990 kPa, x2 = 0.6027
  speed of sound: 1509.9 ± 1.2 m/s
303.15 K, 111450 kPa, x2 = 0
  speed of sound: 1647.6 ± 1.3 m/s
303.16 K, 100 kPa, x2 = 0.4992
  speed of sound: 1116 ± 1.1 m/s
303.16 K, 15200 kPa, x2 = 0.1008
  speed of sound: 1213.6 ± 1.1 m/s
303.16 K, 45590 kPa, x2 = 0.4992
  speed of sound: 1380.9 ± 1.1 m/s
303.16 K, 121580 kPa, x2 = 0.3008
  speed of sound: 1669.9 ± 1.3 m/s
303.17 K, 15200 kPa, x2 = 0
  speed of sound: 1218.6 ± 1.1 m/s
303.17 K, 75990 kPa, x2 = 0
  speed of sound: 1517.2 ± 1.3 m/s
303.17 K, 101320 kPa, x2 = 0.1008
  speed of sound: 1607.1 ± 1.3 m/s
303.17 K, 101320 kPa, x2 = 0.3008
  speed of sound: 1602.4 ± 1.3 m/s
303.18 K, 60790 kPa, x2 = 0
  speed of sound: 1453.7 ± 1.2 m/s
303.18 K, 91190 kPa, x2 = 0
  speed of sound: 1575.7 ± 1.3 m/s
303.18 K, 111450 kPa, x2 = 0.1008
  speed of sound: 1642 ± 1.3 m/s
303.18 K, 121580 kPa, x2 = 0.6027
  speed of sound: 1666.6 ± 1.3 m/s
303.19 K, 121580 kPa, x2 = 0.1008
  speed of sound: 1675.4 ± 1.3 m/s
303.2 K, 100 kPa, x2 = 0.3008
  speed of sound: 1107.1 ± 1.1 m/s
303.2 K, 30400 kPa, x2 = 0.3008
  speed of sound: 1301.8 ± 1.1 m/s
303.2 K, 60790 kPa, x2 = 0.1008
  speed of sound: 1448.8 ± 1.2 m/s
303.21 K, 30400 kPa, x2 = 0.1008
  speed of sound: 1301.9 ± 1.1 m/s
303.21 K, 45590 kPa, x2 = 0.1008
  speed of sound: 1379.3 ± 1.2 m/s
303.21 K, 60790 kPa, x2 = 0.3008
  speed of sound: 1446 ± 1.2 m/s
303.21 K, 75990 kPa, x2 = 0.1008
  speed of sound: 1512.1 ± 1.2 m/s
303.21 K, 75990 kPa, x2 = 0.3008
  speed of sound: 1508.5 ± 1.2 m/s
303.21 K, 91190 kPa, x2 = 0.1008
  speed of sound: 1570.5 ± 1.3 m/s
303.21 K, 91190 kPa, x2 = 0.3008
  speed of sound: 1566.1 ± 1.2 m/s
303.22 K, 100 kPa, x2 = 0.1008
  speed of sound: 1103.8 ± 1.1 m/s
303.23 K, 45590 kPa, x2 = 0.3008
  speed of sound: 1377.7 ± 1.2 m/s
303.25 K, 111450 kPa, x2 = 0.3008
  speed of sound: 1636.9 ± 1.3 m/s
